From patent US6995170B1, “Semi-hydrochloride of 8-cyano-1-cyclopropyl-7-(1S,6S-2,8-diazabicyclo[4.3.0]nonan-8-yl)-6-fluoro-1, 4-dihydro-4-oxo-3-quinolinecarboxylic acid” (Bayer Aktiengesellschaft, priority 1998, dated 2006) come the findings set out here.

Counter-ions that a name gives are not always drawn.

The nature of this data set: Solubility in water (strength of solutions that can be prepared).

Regarding `N#Cc1c(N2C[C@@H]3CCCN[C@@H]3C2)c(F)cc2c(=O)c(C(=O)O)cn(C3CC3)c12` [CCDC, 8-Cyano-1-cyclopropyl-7-(1S,6S-2,8-diazabicyclo[4.3.0]nonan-8-yl)-6-fluoro-1,4-dihydro-4-oxo-3-quinolinecarboxylic acid], the “strength of solutions in water that can be prepared (solubility in water)” value is reported as “about 0.02 % (w/w)”.

Regarding `N#Cc1c(N2C[C@@H]3CCCN[C@@H]3C2)c(F)cc2c(=O)c(C(=O)O)cn(C3CC3)c12` [CCDC hydrochloride], the “strength of solutions in water that can be prepared (solubility in water)” value is “approximately 2.8 % (w/w)”.
